Measured values as given in PMC7794549, “A capsaicinoid-based soft drug, AG1529, for attenuating TRPV1-mediated histaminergic and inflammatory sensory neuron excitability” (Scientific Reports, 2021).

Experiments:
Format in all cases: cell-based
hTRPV1 = molecular target: T1, hTRPV1 (Homo sapiens, UniProt Q8NER1); assay: whole-cell patch-clamp, capsaicin-evoked currents in HEK293 cells expressing hTRPV1
T1 construct: gene TRPV1

hTRPA1 [1] = molecular target: T2, hTRPA1 (Homo sapiens, UniProt O75762); assay: whole-cell patch-clamp, AITC-evoked currents in HEK293 cells; % inhibition at […]
T2 construct: gene TRPA1

rTRPV1 = molecular target: T3, rTRPV1 (Rattus norvegicus, UniProt O35433); assay: Ca2+ microfluorography
T3 construct: gene Trpv1

hTRPM8 = molecular target: T4, hTRPM8 (Homo sapiens, UniProt Q7Z2W7); assay: whole-cell patch-clamp, menthol-evoked currents in HEK293 cells; % block at […]
T4 construct: gene TRPM8

hTRPA1 [2] = molecular target: T2, hTRPA1; assay: whole-cell patch-clamp, AITC-evoked currents in HEK293 cells, […]

T2 sequence (O75762 whole entry): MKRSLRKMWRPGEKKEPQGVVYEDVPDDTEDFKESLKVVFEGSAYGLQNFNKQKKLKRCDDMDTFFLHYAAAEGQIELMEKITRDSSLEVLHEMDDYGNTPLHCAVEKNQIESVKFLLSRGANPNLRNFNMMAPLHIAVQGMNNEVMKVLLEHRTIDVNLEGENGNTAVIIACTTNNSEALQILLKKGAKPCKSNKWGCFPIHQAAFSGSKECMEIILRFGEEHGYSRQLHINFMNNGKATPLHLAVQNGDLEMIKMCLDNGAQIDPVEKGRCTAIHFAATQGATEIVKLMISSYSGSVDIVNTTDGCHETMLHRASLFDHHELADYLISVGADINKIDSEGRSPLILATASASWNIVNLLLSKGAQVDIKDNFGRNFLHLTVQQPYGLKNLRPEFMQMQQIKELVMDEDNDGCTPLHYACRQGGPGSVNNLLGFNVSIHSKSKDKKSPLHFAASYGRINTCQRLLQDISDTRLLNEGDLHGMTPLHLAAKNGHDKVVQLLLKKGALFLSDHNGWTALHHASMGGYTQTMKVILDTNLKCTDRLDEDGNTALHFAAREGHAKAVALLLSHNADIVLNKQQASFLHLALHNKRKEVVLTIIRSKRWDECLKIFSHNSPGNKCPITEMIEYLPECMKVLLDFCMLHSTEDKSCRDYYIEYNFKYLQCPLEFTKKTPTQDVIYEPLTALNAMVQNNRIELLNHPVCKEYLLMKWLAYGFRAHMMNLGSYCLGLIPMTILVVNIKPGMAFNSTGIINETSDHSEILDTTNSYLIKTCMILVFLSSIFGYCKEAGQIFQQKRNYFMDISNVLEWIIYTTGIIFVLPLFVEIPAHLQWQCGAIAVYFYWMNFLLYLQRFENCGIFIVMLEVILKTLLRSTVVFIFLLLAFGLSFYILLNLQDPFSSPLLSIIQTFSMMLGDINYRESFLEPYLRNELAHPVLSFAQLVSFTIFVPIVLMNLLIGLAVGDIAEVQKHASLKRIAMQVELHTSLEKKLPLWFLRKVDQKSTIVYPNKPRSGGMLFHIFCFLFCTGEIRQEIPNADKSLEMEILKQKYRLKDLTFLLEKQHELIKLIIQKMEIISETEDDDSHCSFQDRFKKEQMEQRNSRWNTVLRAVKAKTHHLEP
T4 sequence (Q7Z2W7 whole entry): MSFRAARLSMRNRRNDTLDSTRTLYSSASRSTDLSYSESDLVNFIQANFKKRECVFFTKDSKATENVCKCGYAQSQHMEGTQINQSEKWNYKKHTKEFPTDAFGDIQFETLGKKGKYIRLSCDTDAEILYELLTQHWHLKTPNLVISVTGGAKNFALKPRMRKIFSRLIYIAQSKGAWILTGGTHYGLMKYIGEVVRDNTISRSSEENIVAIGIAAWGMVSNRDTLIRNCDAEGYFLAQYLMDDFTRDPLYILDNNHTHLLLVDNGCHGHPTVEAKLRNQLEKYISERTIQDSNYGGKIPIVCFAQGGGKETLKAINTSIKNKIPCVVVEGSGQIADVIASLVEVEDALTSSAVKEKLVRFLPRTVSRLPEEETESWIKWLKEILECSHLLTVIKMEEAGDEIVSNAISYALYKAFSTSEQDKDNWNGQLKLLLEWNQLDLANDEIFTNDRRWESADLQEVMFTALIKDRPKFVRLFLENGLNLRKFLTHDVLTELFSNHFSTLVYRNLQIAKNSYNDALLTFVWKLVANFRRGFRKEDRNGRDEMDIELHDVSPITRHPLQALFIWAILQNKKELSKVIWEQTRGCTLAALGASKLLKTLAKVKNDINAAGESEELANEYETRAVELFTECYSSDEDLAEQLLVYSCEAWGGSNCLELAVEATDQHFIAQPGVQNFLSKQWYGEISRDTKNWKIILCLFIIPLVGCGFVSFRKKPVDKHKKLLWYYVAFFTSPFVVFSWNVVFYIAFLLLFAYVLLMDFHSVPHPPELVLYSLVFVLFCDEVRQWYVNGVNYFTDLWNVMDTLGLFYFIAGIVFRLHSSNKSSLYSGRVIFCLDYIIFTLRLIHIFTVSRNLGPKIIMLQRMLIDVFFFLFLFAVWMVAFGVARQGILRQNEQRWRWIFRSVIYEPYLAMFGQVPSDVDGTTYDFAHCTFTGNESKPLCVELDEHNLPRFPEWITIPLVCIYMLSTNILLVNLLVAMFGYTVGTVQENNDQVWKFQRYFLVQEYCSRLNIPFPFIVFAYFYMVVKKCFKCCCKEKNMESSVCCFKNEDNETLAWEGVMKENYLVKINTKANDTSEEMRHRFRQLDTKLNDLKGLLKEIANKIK
T3 sequence (O35433 whole entry): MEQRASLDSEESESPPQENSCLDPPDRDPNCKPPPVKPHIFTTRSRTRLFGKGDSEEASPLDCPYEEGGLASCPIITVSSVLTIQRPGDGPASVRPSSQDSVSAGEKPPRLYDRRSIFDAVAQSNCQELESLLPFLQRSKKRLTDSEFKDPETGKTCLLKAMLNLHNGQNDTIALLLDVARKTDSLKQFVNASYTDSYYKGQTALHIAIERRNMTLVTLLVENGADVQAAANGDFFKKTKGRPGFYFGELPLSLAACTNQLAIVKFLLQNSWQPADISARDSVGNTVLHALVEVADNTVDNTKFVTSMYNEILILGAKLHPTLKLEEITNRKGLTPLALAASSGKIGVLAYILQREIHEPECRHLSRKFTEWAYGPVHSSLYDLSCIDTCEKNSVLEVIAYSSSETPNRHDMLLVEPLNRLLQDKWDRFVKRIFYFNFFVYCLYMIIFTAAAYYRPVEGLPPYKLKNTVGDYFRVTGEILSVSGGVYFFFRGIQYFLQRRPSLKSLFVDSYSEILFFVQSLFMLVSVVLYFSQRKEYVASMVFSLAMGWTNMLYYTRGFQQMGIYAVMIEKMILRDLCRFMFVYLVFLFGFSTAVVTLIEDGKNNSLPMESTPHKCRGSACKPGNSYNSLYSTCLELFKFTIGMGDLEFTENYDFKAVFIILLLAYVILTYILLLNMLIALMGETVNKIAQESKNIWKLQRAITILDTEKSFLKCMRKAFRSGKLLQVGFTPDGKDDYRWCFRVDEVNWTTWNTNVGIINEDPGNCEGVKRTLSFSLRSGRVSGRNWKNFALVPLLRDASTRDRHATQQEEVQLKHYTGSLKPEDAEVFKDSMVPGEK
T1 sequence (Q8NER1 whole entry): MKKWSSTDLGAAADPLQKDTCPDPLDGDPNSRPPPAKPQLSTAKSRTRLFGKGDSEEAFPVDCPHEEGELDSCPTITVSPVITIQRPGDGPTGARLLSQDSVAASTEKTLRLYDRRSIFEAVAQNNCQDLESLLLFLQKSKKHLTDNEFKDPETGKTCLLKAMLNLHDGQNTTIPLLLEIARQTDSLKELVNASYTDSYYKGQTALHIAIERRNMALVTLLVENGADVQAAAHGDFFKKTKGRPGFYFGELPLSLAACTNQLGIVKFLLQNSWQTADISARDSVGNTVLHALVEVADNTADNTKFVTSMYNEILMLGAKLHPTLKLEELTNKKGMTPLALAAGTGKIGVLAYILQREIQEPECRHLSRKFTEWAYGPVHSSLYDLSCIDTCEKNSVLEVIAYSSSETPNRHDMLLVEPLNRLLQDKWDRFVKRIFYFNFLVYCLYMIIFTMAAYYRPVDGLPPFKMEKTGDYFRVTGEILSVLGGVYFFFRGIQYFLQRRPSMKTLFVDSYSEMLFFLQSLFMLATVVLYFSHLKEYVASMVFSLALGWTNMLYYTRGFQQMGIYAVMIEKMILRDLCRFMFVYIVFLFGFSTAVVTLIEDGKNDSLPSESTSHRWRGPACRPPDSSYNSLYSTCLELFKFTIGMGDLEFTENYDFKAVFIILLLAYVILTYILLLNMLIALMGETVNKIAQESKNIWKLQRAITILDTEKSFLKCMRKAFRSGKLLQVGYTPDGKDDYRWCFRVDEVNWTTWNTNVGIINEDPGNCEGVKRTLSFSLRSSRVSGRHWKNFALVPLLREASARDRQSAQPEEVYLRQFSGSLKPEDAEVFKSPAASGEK

Row | SMILES | IC50 (hTRPV1) [nM] | inhibition at 10 µM (hTRPA1 [1]) [%] | IC50 (rTRPV1) [nM] | % (hTRPM8) | whole-cell patch-clamp, AITC-evoked currents in HEK293 cells, 5 μM (hTRPA1 [2])
1 | CCCCCCCCCCCC(=O)OCC(=O)NCc1cc(OC)c(O)cc1I [AG1529, 2-((4-hydroxy-2-iodo-5-methoxybenzyl)amino)-2-oxoethyl dodecanoate] | 900 ± 500 | ~40 | 900 ± 200 | ~ 40% | –
2 | CC(C)c1ccc(NC(=O)Cn2cnc3c2c(=O)n(C)c(=O)n3C)cc1 [HC030031, 1,2,3,6-Tetrahydro-1,3-dimethyl-N-[4-(1-methylethyl)phenyl]-2,6-dioxo-7H-purine-7-acetamide] | – | – | – | – | a reference TRPA1 antagonist, completely abrogated AITC-evoked ionic currents
